Experimental data as given in US20240350432A1, “CENTRAL NERVOUS SYSTEM MODULATORS AS COVID-19 THERAPEUTICS” (priority 2023, published 2024).
“Also recorded” adds a separate entry of the source.

What was measured:
Format in all cases: in vivo, mice
[1] = test system: IBA1; assay: IBA1 immunofluorescence (microglia), mean FL intensity; conditions: for mean IBA1 FL intensity with progression of COVID-19 infection (time post-inoculation): COVID-19 positive groups, 3, 6, 10 days
[2] = test system: myelin of the pons and medulla; assay: Black-Gold II Myelin staining, semi-qualitative myelination ranking
[3] = test system: pons and medulla; assay: Cresyl violet staining, semi-qualitative morphology ranking; conditions: COVID-19 positive; for cresyl violet morphological rank vs (−) control: rank 1-3
[4] = test system: GFAP; assay: GFAP immunofluorescence (reactive astrocytes), mean FL intensity; conditions: for mean GFAP FL intensity with progression of COVID-19 infection (time post-inoculation): COVID-19 positive groups, 3, 6, 10 days
[5] = COVID-19 positive, 6 days post-inoculation
[6] = COVID-19 positive, 3 days post-inoculation

| Compound | mean IBA1 FL intensity with progression of COVID-19 infection (time post-inoculation) [1] | Black-Gold II myelination ranking [2, 5] | Black-Gold II myelination ranking across time points post-inoculation ([2]; regardless of COVID-19 status) | cresyl violet morphological rank vs (−) control ([3]; 3 days post-inoculation) | cresyl violet morphological rank vs saline treatment ([3]; 6 days post-inoculation) | cresyl violet morphological rank vs (−) control ([3]; 6 days post-inoculation) | cresyl violet morphological rank vs saline treatment ([3]; 10 days post-inoculation) | mean GFAP FL intensity with progression of COVID-19 infection (time post-inoculation) [4] | preventative effect in COVID-19 induced neuroinflammation (GFAP and IBA1 FL intensity trends) ([4]; respiratory centers of the brain) | IBA1 FL intensity nonlinear fit over time, Best Fit ([1]; COVID-19 positive groups) | FL intensity vs saline and ifenprodil treated groups (FIG. 6B) [1, 6] | mean IBA1 FL intensity, COVID-19 positive vs negative group of same treatment ([1]; sacrificed 10 days post-virus inoculation) | Black-Gold II myelination ranking [2, 6] | Black-Gold II myelination ranking vs (−) control ([2]; COVID-19 positive, 10 days post-inoculation) | COVID-19 related changes in myelination, overall finding ([2]; respiratory centers of the brain, listed as Memantine) | cresyl violet morphological rank vs (−) control ([3]; 10 days post-inoculation) | GFAP FL intensity nonlinear fit over time, Best Fit ([4]; COVID-19 positive groups) |
| --- | --- | --- | --- | --- | --- | --- | --- | --- | --- | --- | --- | --- | --- | --- | --- | --- | --- |
| CC(C(O)c1ccc(O)cc1)N1CCC(Cc2ccccc2)CC1 (stereo not shown) [ifenprodil] | significantly changed | increased myelination ranking | no differences; also recorded: no significant difference | no difference in morphological rank | increases morphological rank | increase in rankings | improve the morphological rank | significantly changed | did not have a preventative effect | – | – | – | – | – | – | – | – |
| CC12CC3CC(C)(C1)CC(N)(C3)C2 [memantine] | increasing time point was not associated with decreasing mean IBA1 FL intensity; also recorded: no change | decreased myelination rankings | – | – | – | significantly lower than the negative control | improve the morphological rank | no change; also recorded: increasing time point was not associated with increasing mean GFAP FL intensity | – | Horizonal Line | decreased expression of GFAP; also recorded: slightly lower | significantly decreased; also recorded: slightly lower | decreased myelination rankings | not significantly different | signs of demyelination | morphology rankings similar to the negative control groups; also recorded: no longer a difference in morphological rank | Horizontal Line |
